In brackets after ≈: the same amount, converted by molar mass.
What was measured:
Type in all cases: functional
Conditions in all cases: read-out: ED50 (the source's name)
[1] = system: P388; test: Cytotoxicity against mouse P388 cells
[2] = system: KB; test: Cytotoxicity against human KB cells
[3] = system: RPMI-7951; test: Cytotoxicity against human RPMI7951 cells
[4] = system: HCT-8; test: Cytotoxicity against human HCT8 cells

## CC(C)(O)[C@@H]1CC[C@@](C)([C@H]2CC[C@]3(C)[C@@H]2[C@H](O)C[C@@H]2[C@@]4(C)[C@H](O)C[C@@H](O)C(C)(C)[C@@H]4CC[C@]23C)O1 [POLACANDRIN]
[1]
  EC50: 0.9 mg/L (≈ 1.83 µM)
[2]
  EC50: 0.6 mg/L (≈ 1.22 µM)
[3]
  EC50: 0.62 mg/L (≈ 1.26 µM)
[4]
  EC50: 6.06 mg/L (≈ 12.3 µM)
